pIC50: −log10 of the molar value.
Legend:
[1] = target: T1, 3',5'-cyclic-AMP phosphodiesterase 4D (Homo sapiens, UniProt Q08499); experiment: Inhibition of PDE4D7 (unknown origin) using FAM-cyclic-3',5'-AMP as substrate at 10 nM incubated for 1 hrs by fluorescence polarization based IMAP assay relative to control
[2] = target: T1, 3',5'-cyclic-AMP phosphodiesterase 4D; experiment: Inhibition of PDE4D7 (unknown origin) using FAM-cyclic-3',5'-AMP as substrate at 100 nM incubated for 1 hrs by fluorescence polarization based IMAP assay relative to control
[3] = target: T1, 3',5'-cyclic-AMP phosphodiesterase 4D; experiment: Inhibition of PDE4D7 (unknown origin) using FAM-cyclic-3',5'-AMP as substrate incubated for 1 hrs by fluorescence polarization based IMAP assay
[4] = Oral bioavailability in Sprague-Dawley rat at 5 mg/kg measured after 24 hrs by LC-MS/MS analysis; type: ADME, organism-based; details: in vivo
[5] = target: T1, 3',5'-cyclic-AMP phosphodiesterase 4D; experiment: Inhibition of PDE4D7 (unknown origin) using FAM-cyclic-3',5'-AMP as substrate at 1 microM incubated for 1 hrs by fluorescence polarization based IMAP assay relative to control
[6] = Toxicity in ketamine/xylazine-induced anesthetic C57BL/6J mouse model assessed as emetogenic potential by measuring reduction in anesthesia duration at 0.5 mg/kg, po preadministered with compound for 15 mins followed by ketamine/xylazine administration; type: organism-based; details: in vivo, 0.25 h
[7] = Chemical stability of compound in aqueous solution at pH >10 measured after 48 hrs; type: physicochemical; details: buffer
[8] = Chemical stability of compound in aqueous solution at pH <6 measured after 48 hrs; type: physicochemical; details: buffer
[9] = system: SH-SY5Y; experiment: Cytotoxicity against human SH-SY5Y cells assessed as reduction in cell viability at 20 uM incubated for 48 hrs by MTT assay; type: toxicity, cell-based
[10] = system: HT-22; experiment: Cytotoxicity against mouse HT-22 cells assessed as reduction in cell viability at 30 uM incubated for 48 hrs by MTT assay; type: toxicity, cell-based; details: ht-22, 48 h

T1 sequence (Q08499 whole entry): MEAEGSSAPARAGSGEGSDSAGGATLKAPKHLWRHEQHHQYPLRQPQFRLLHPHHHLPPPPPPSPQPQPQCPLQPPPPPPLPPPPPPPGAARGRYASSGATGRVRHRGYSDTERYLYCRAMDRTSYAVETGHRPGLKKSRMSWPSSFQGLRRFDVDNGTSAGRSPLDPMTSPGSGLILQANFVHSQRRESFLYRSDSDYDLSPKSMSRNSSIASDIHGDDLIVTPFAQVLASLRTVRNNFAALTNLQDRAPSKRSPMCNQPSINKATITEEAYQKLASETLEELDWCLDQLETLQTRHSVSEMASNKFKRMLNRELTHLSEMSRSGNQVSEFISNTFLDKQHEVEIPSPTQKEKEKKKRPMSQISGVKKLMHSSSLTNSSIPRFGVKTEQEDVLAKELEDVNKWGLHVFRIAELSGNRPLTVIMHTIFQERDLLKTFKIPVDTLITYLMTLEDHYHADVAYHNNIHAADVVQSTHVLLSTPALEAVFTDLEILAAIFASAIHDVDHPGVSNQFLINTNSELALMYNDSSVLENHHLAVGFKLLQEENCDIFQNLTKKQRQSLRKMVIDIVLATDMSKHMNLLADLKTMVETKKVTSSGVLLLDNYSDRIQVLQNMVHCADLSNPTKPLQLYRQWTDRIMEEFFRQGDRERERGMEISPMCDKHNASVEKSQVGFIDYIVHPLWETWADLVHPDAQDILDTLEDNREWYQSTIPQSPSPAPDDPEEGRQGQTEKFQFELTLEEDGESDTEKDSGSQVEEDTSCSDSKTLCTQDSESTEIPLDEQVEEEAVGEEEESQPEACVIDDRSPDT

| SMILES | inhibition [1] [%] | inhibition [2] [%] | further results |
| --- | --- | --- | --- |
| CCOc1nc(Cl)cc2nn(CC(=O)O)cc12 | 5 | 7 | – |
| CCOc1nc(Cl)cc2c1cnn2CCCC(=O)NO | 5 | 19 | – |
| CCOc1nc(Cl)cc2nn(CCC(=O)NO)cc12 | 25 | 66 | pIC50 [3]: 7.41 |
| CCOc1nc(Cl)cc2c1cnn2C(C)c1ccc(C(F)(F)F)cc1 (stereo not given) | – | 14 | – |
| CCOc1nc(Cl)cc2nn(CCCCO)cc12 | 4 | 3 | – |
| CC(C)NC(=O)c1ccc(OC(F)F)c(OCC2CC2)c1 | – | – | bioavailability [4]: 1.2% |
| CCOc1nc(Cl)cc2c1c(NCc1ccccc1)nn2CCCC(=O)O | 4 | 18 | – |
| CCOc1nc(Cl)cc2c1c(C1CC1)nn2CCCC(=O)O | 8 | 13 | – |
| O=C(Nc1c(Cl)cncc1Cl)c1ccc(OC(F)F)c(OCC2CC2)c1 [ROFLUMILAST] | – | – | Activity [6]: Toxic |
| CCOc1nc(Cl)cc2c1c(-c1ccc(OC)cc1)nn2CCCC(=O)O | 7 | 16 | – |
| CCOc1nc(Cl)cc2c1c(/C=C/c1ccc(OC)cc1)nn2CCCC(=O)O | 2 | 5 | – |
| CCOc1nc(Cl)cc2nn(-c3cccc(OC)c3)cc12 | – | 8 | – |
| CCOc1nc(Cl)cc2c1c(C1CCCCC1)nn2CCCC(=O)O | 6 | 11 | – |
| CCOc1nc(Cl)cc2c1c(-c1cccnc1)nn2CCCC(=O)O | 4 | 9 | – |
| CCOc1nc(Cl)cc2c1c(CC)nn2CCCC(=O)O | 15 | 48 | – |
| CCOc1nc(Cl)cc2nn(CCO)cc12 | 6 | 5 | – |
| CCOc1nc(Cl)nc2c1cnn2C1CCOCC1 | – | – | Stability [7]: Unstable; Stability [8]: Unstable |

| SMILES | inhibition [1] [%] | inhibition [2] [%] | further results |
| --- | --- | --- | --- |
| CCOc1nc(Cl)cc2c1cnn2-c1ccc(OC)cc1 | – | 5 | – |
| CCOc1nc(Cl)cc2c1c(Nc1ccccc1)nn2CCCC(=O)O | 7 | 9 | – |
| CCOc1nc(Cl)cc2c1c(-c1cccc(OC)c1)nn2CCCC(=O)O | 3 | 6 | – |
| CCOc1nc(Cl)cc2c1c(C(F)(F)F)nn2CCCC(=O)O | 23 | 53 | – |
| CCOc1nc(Cl)cc2c1cnn2CCCCO | 5 | 6 | – |
| CCOc1nc(Cl)cc2c1cnn2CCC(=O)O | 8 | 19 | – |
| CCOc1nc(Cl)cc2c1c(NCC(C)C)nn2CCCC(=O)O | 6 | 27 | – |
| CCOc1nc(Cl)cc2nn(CCCO)cc12 | 21 | 53 | Activity [9]: Non-Toxic; pIC50 [3]: 7.15; Activity [10]: Non-Toxic |
| CCOc1nc(Cl)cc2nn(CCCC(=O)NO)cc12 | 18 | 63 | pIC50 [3]: 7.29 |
| CCOc1nc(Cl)cc2nn(CC(=O)NO)cc12 | 36 | 69 | Activity [9]: Non-Toxic; pIC50 [3]: 7.69; Activity [10]: Non-Toxic |
| CCOc1nc(Cl)cc2c1cnn2-c1cccc(OC)c1 | – | 7 | – |
| CCOc1cc([C@@H](CS(C)(=O)=O)N2C(=O)c3cccc(NC(C)=O)c3C2=O)ccc1OC [APREMILAST] | – | – | Activity [6]: Toxic |
| CCOc1nc(Cl)cc2nn(CCCC(=O)O)cc12 | 6 | 8 | – |
| CCOc1nc(Cl)cc2c1c(C)nn2CCCC(=O)O | 6 | 11 | – |
| CCOc1nc(Cl)cc2c1c(-c1ccncc1)nn2CCCC(=O)O | 5 | 24 | – |
| CCOc1nc(Cl)cc2c1cnn2Cc1cccnc1 | – | 5 | – |

Further lines, with some results ahead:

| inhibition [1] [%] | inhibition [2] [%] | SMILES | further results |
| --- | --- | --- | --- |
| 3 | 4 | CCOc1nc(Cl)cc2c1cnn2CCO | – |
| – | 32 | CCOc1nc(C#N)cc2c1cnn2C1CCOCC1 | inhibition [5]: 82%; pIC50 [3]: 6.64 |
| – | 0 | CNc1nc(Cl)cc2c1cnn2C1CCOCC1 | inhibition [5]: 0% |
| – | 12 | CC(C)Oc1nc(Cl)cc2c1cnn2C1CCOCC1 | inhibition [5]: 30% |
| 3 | 5 | CCOc1nc(Cl)cc2c1cnn2CC#N | – |
| 9 | 18 | CCOc1nc(Cl)cc2c1cnn2CCC(=O)NO | – |
| 3 | 3 | CCOc1nc(Cl)cc2c1cnn2CC(N)=O | – |
| – | 5 | Clc1cc2c(cnn2C2CCOCC2)c(OC2CCCC2)n1 | inhibition [5]: 10% |
| 5 | 8 | CCOc1nc(Cl)cc2c1cnn2CCCO | – |
| – | 7 | CCOc1nc(Cl)cc2c1cnn2CC1(C)COC1 | – |
| 3 | 3 | CCOc1nc(Cl)cc2c1cnn2CC(=O)O | – |
| – | 4 | CCOc1nc(Cl)cc2c1cnn2CC1CCCO1 (stereo not given) | – |
| – | 64 | CCOc1nc(Cl)cc2c1cnn2C1CCOCC1 | inhibition [5]: 95%; pIC50 [3]: 7.03; Stability [7]: Stable; Stability [8]: Stable |
| 4 | 4 | CCOc1nc(Cl)cc2c1cnn2CC(=O)NC | – |
| 4 | 6 | CCOc1nc(Cl)cc2c1cnn2CC(=O)NOC | – |
| – | 15 | CNc1nc(Cl)cc2c1cnn2C1CCCC1 | inhibition [5]: 59% |
| – | 6 | CCOc1nc(C(N)=O)cc2c1cnn2C1CCOCC1 | inhibition [5]: 12% |
| – | 5 | CCOc1nc(C)cc2c1cnn2C1CCOCC1 | – |

| inhibition [1] [%] | inhibition [2] [%] | SMILES | further results |
| --- | --- | --- | --- |
| – | 4 | CCOc1nc(-c2cccs2)cc2c1cnn2C1CCOCC1 | inhibition [5]: 23% |
| – | 5 | CCNc1nc(Cl)cc2c1cnn2C1CCCC1 | inhibition [5]: 28% |
| – | 6 | CCOc1nc(C(C)=O)cc2c1cnn2C1CCOCC1 | inhibition [5]: 9% |
| – | 3 | CCOc1nc(Cl)cc2c1cnn2C1CCS(=O)(=O)CC1 | – |
| – | 10 | CCOc1nc(Cl)cc2nn(CC3CCCO3)cc12 (stereo not given) | – |
| – | 16 | FC(F)(F)COc1nc(Cl)cc2c1cnn2C1CCOCC1 | inhibition [5]: 35% |
| 41 | 68 | CCOc1nc(Cl)cc2c1cnn2CC(=O)NO | Activity [9]: Non-Toxic; pIC50 [3]: 7.78; Activity [10]: Non-Toxic |
| – | 5 | CCOc1nc(Cl)cc2c1cnn2C1CCSCC1 | – |
| – | 2 | CCCOc1nc(Cl)cc2c1cnn2C1CCOCC1 | inhibition [5]: 5% |
| – | 3 | CCOc1nc(-c2ccsc2)cc2c1cnn2C1CCOCC1 | inhibition [5]: 4% |
| – | 14 | CCOc1nc(-c2ccccc2)cc2c1cnn2C1CCOCC1 | inhibition [5]: 32% |
| 5 | 8 | CCOc1nc(Cl)cc2c1cnn2CC(=O)N(C)O | – |
| – | 4 | Clc1cc2c(cnn2C2CCOCC2)c(OC2CC2)n1 | inhibition [5]: 8% |
| – | 35 | COc1nc(Cl)cc2c1cnn2C1CCOCC1 | inhibition [5]: 75% |
| – | 9 | CCOc1nc(Cl)cc2c1cnn2CC1CCOC1 (stereo not given) | – |
| – | 1 | CCOc1nccc2c1cnn2C1CCOCC1 | – |
| – | 17 | CNc1nc(Cl)cc2nn(C3CCOCC3)cc12 | – |
| – | 35 | CCOc1nc(Cl)cc2nn(C3CCOCC3)cc12 | – |
